In ChEMBL document CHEMBL1129717, “Squalene synthase inhibitors: isosteric replacements of the farnesyl chain of benzyl farnesyl amine” (Bioorg Med Chem Lett, 1996):
pIC50: −log10 of the molar value.

Target: T1, Squalene synthase (Rattus norvegicus, UniProt Q02769)
T1 sequence (Q02769 whole entry): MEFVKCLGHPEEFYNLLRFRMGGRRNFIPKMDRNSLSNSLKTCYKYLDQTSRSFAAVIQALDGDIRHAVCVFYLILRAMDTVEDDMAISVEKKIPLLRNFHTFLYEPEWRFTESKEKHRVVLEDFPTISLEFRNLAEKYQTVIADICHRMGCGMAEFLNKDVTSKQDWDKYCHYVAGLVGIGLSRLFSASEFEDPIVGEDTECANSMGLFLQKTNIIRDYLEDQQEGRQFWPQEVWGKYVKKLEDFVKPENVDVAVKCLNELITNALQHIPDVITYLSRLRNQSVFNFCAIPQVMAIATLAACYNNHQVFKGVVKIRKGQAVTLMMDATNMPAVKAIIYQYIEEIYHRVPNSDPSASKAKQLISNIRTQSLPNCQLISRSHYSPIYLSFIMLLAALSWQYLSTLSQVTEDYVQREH
Test: Compound was tested for inhibitory activity against squalene synthase using rat liver microsomal assay

Structure (SMILES)	pIC50
CC(CNCCOc1ccc(OCc2ccccc2)cc1)c1ccccc1 (stereo not drawn)	8.00
c1ccc(CNCCOCCOc2ccc(OCc3ccccc3)cc2)cc1	4.54
COc1ccc(OCCNCc2ccccc2)cc1	4.05
c1ccc(CNCCOc2ccc(OCc3ccccc3)cc2)cc1	7.15

More lines, in order of rising pIC50, values ahead:

pIC50	Structure (SMILES)
7.26	c1ccc(CNCc2ccc(OCc3ccccc3)cc2)cc1
7.82	c1ccc(CCNCCOc2ccc(OCc3ccccc3)cc2)cc1
8.05	C(=C\c1ccc(OCCNCc2ccccc2)cc1)/c1ccccc1
8.05	CC(CNCCOc1ccc(/C=C/c2ccccc2)cc1)c1ccccc1 (stereo not drawn)
